From ChEMBL document CHEMBL5614424, “Natural Product-Inspired Discovery of Naphthoquinone-Furo-Piperidine Derivatives as Novel STAT3 Inhibitors for the Treatment of Triple-Negative Breast Cancer” (J Med Chem, 2024)

Experiments:
[1] = Cmax in male rat at 5 mg/kg, iv measured upto 24 hrs by LC/MS/MS analysis; type: ADME, organism-based; settings: in vivo
[2] = Tmax in male rat at 5 mg/kg, iv measured upto 24 hrs by LC/MS/MS analysis; type: ADME, organism-based; settings: in vivo
[3] = Toxicity in female BALB/c-nude mouse assessed as histological change in heart at 15 to 30 mg/kg, ip once daily for 21 consecutive days by H and E staining based IHC analysis; type: organism-based; settings: in vivo, 504 h, dose 15-30 mg/kg, time 21 day
[4] = Cmax in male rat at 10 mg/kg, po measured upto 24 hrs by LC/MS/MS analysis; type: ADME, organism-based; settings: in vivo
[5] = Toxicity in female BALB/c-nude mouse assessed as histological change in lung at 15 to 30 mg/kg, ip once daily for 21 consecutive days by H and E staining based IHC analysis; type: organism-based; settings: in vivo, 504 h, dose 15-30 mg/kg, time 21 day
MDA-MB-231 [6] = assay: Induction of apoptosis in human MDA-MB-231 cells assessed as late apoptotic cells pretreated with Z-VAD-FMK at 5 uM measured after 24 hrs incubation by the annexin V/propidium iodide (PI) double staining assay (reference value: 3.08%); type: functional
[7] = Tmax in male rat at 10 mg/kg, po measured upto 24 hrs by LC/MS/MS analysis; type: ADME, organism-based; settings: in vivo
MDA-MB-468 [8] = assay: Induction of apoptosis in human MDA-MB-468 cells assessed as late apoptotic cells at 5 uM measured after 24 hrs incubation by the annexin V/propidium iodide (PI) double staining assay (reference value: 3.64%); type: functional
[9] = AUC(0 to t) in male rat at 10 mg/kg, ip measured upto 24 hrs by LC/MS/MS analysis; type: ADME, organism-based; settings: in vivo
MDA-MB-231 [10] = assay: In vivo antitumor activity against human MDA-MB-231 cells assessed as tumor growth inhibition at 30 mg/kg, ip once daily for 21 consecutive days relative to control; type: functional; settings: MDA-MB-231, 504 h, time 21 day, read-out: TGI
[11] = Tmax in male rat at 10 mg/kg, ip measured upto 24 hrs by LC/MS/MS analysis; type: ADME, organism-based; settings: in vivo
MDA-MB-231 [12] = assay: Induction of apoptosis in human MDA-MB-231 cells assessed as late apoptotic cells at 2.5 uM measured after 24 hrs incubation by the annexin V/propidium iodide (PI) double staining assay (reference value: 2.69%); type: functional
[13] = Half life in male rat at 5 mg/kg, iv measured upto 24 hrs by LC/MS/MS analysis; type: ADME, organism-based; settings: in vivo
[14] = Toxicity in female BALB/c-nude mouse assessed as histological change in liver at 15 to 30 mg/kg, ip once daily for 21 consecutive days by H and E staining based IHC analysis; type: organism-based; settings: in vivo, 504 h, dose 15-30 mg/kg, time 21 day
[15] = Oral bioavailability in male rat at 10 mg/kg measured upto 24 hrs by LC/MS/MS analysis; type: ADME, organism-based; settings: in vivo
[16] = Toxicity in female BALB/c-nude mouse assessed as histological change in kidney at 15 to 30 mg/kg, ip once daily for 21 consecutive days by H and E staining based IHC analysis; type: organism-based; settings: in vivo, 504 h, dose 15-30 mg/kg, time 21 day
MDA-MB-468 [17] = assay: Induction of apoptosis in human MDA-MB-468 cells assessed as early apoptotic cells at 5 uM measured after 24 hrs incubation by the annexin V/propidium iodide (PI) double staining assay (reference value: 3.98%); type: functional
MDA-MB-231 [18] = assay: Induction of apoptosis in human MDA-MB-231 cells assessed as early apoptotic cells at 5 uM measured after 24 hrs incubation by the annexin V/propidium iodide (PI) double staining assay (reference value: 2.37%); type: functional
[19] = AUC(0 to infinity) in male rat at 5 mg/kg, iv measured upto 24 hrs by LC/MS/MS analysis; type: ADME, organism-based; settings: in vivo
L02 = assay: Antiproliferative activity against human L02 cells assessed as cell viability incubated for 48 hrs measured after additional incubation with MTT; type: functional, cell-based; settings: L02, 48 h
[20] = AUC(0 to infinity) in male rat at 10 mg/kg, ip measured upto 24 hrs by LC/MS/MS analysis; type: ADME, organism-based; settings: in vivo
MDA-MB-468 [21] = assay: Induction of apoptosis in human MDA-MB-468 cells assessed as early apoptotic cells at 2.5 uM measured after 24 hrs incubation by the annexin V/propidium iodide (PI) double staining assay (reference value: 3.98%); type: functional
[22] = Half life in male rat at 10 mg/kg, ip measured upto 24 hrs by LC/MS/MS analysis; type: ADME, organism-based; settings: in vivo
[23] = AUC(0 to t) in male rat at 5 mg/kg, iv measured upto 24 hrs by LC/MS/MS analysis; type: ADME, organism-based; settings: in vivo
[24] = Half life in male rat at 10 mg/kg, po measured upto 24 hrs by LC/MS/MS analysis; type: ADME, organism-based; settings: in vivo
MDA-MB-231 [25] = assay: Induction of apoptosis in human MDA-MB-231 cells assessed as late apoptotic cells at 5 uM measured after 24 hrs incubation by the annexin V/propidium iodide (PI) double staining assay (reference value: 2.69%); type: functional
MDA-MB-231 [26] = assay: Induction of apoptosis in human MDA-MB-231 cells assessed as early apoptotic cells at 5 uM measured after 24 hrs incubation by the annexin V/propidium iodide (PI) double staining assay (reference value: 2.46%); type: functional
[27] = Toxicity in female BALB/c-nude mouse assessed as histological change in spleen at 15 to 30 mg/kg, ip once daily for 21 consecutive days by H and E staining based IHC analysis; type: organism-based; settings: in vivo, 504 h, dose 15-30 mg/kg, time 21 day
MDA-MB-231 [28] = assay: Induction of apoptosis in human MDA-MB-231 cells assessed as early apoptotic cells pretreated with Z-VAD-FMK at 5 uM measured after 24 hrs incubation by the annexin V/propidium iodide (PI) double staining assay (reference value: 2.37%); type: functional
[29] = Cmax in male rat at 10 mg/kg, ip measured upto 24 hrs by LC/MS/MS analysis; type: ADME, organism-based; settings: in vivo
MDA-MB-231 [30] = assay: Induction of apoptosis in human MDA-MB-231 cells assessed as early apoptotic cells at 2.5 uM measured after 24 hrs incubation by the annexin V/propidium iodide (PI) double staining assay (reference value: 2.46%); type: functional
MDA-MB-231 [31] = assay: Antiproliferative activity against human MDA-MB-231 cells assessed as cell viability incubated for 48 hrs measured after additional incubation with MTT; type: functional, cell-based; settings: MDA-MB-231, 48 h
MDA-MB-468 [32] = assay: Induction of apoptosis in human MDA-MB-468 cells assessed as late apoptotic cells pretreated with Z-VAD-FMK at 5 uM measured after 24 hrs incubation by the annexin V/propidium iodide (PI) double staining assay (reference value: 4.33%); type: functional
[33] = AUC(0 to t) in male rat at 10 mg/kg, po measured upto 24 hrs by LC/MS/MS analysis; type: ADME, organism-based; settings: in vivo
[34] = Antiproliferative activity against human MCF-10A cells assessed as cell viability incubated for 48 hrs measured after additional incubation with MTT; type: toxicity, cell-based
MDA-MB-468 [35] = assay: Antiproliferative activity against human MDA-MB-468 cells assessed as cell viability incubated for 48 hrs measured after additional incubation with MTT; type: functional, cell-based; settings: MDA-MB-468, 48 h
MDA-MB-468 [36] = assay: Induction of apoptosis in human MDA-MB-468 cells assessed as early apoptotic cells at 5 uM measured after 24 hrs incubation by the annexin V/propidium iodide (PI) double staining assay (reference value: 2.36%); type: functional
[37] = AUC(0 to infinity) in male rat at 10 mg/kg, po measured upto 24 hrs by LC/MS/MS analysis; type: ADME, organism-based; settings: in vivo
MDA-MB-231 [38] = assay: Induction of apoptosis in human MDA-MB-231 cells assessed as late apoptotic cells at 5 uM measured after 24 hrs incubation by the annexin V/propidium iodide (PI) double staining assay (reference value: 3.08%); type: functional
MDA-MB-468 [39] = assay: Induction of apoptosis in human MDA-MB-468 cells assessed as late apoptotic cells at 2.5 uM measured after 24 hrs incubation by the annexin V/propidium iodide (PI) double staining assay (reference value: 3.64%); type: functional
MDA-MB-468 [40] = assay: Induction of apoptosis in human MDA-MB-468 cells assessed as early apoptotic cells pretreated with Z-VAD-FMK at 5 uM measured after 24 hrs incubation by the annexin V/propidium iodide (PI) double staining assay (reference value: 2.36%); type: functional
MDA-MB-468 [41] = assay: Induction of apoptosis in human MDA-MB-468 cells assessed as late apoptotic cells at 5 uM measured after 24 hrs incubation by the annexin V/propidium iodide (PI) double staining assay (reference value: 4.33%); type: functional
MDA-MB-231 [42] = assay: In vivo antitumor activity against human MDA-MB-231 cells assessed as tumor growth inhibition at 15 mg/kg, ip once daily for 21 consecutive days relative to control; type: functional; settings: MDA-MB-231, 504 h, time 21 day, read-out: TGI

CC(C)C[C@@H](CO)N1CCc2c(oc3c2C(=O)C(=O)c2ccccc2-3)C1
Cmax [1]: 348 ng/mL | Tmax [2]: 4.2 min | Activity [3]: Non-Toxic | Cmax [4]: 67.8 ng/mL | Activity [5]: Non-Toxic | Activity (MDA-MB-231 [6]): 13.57% | Tmax [7]: 0.2 h | Activity (MDA-MB-468 [8]): 19.37% | AUC(0-t) at 24 h [9]: 436 ng·h/mL | inhibition in vivo at 30 mg/kg (MDA-MB-231 [10]): 60.4% | Tmax [11]: 6 min | Activity (MDA-MB-231 [12]): 3.48% | half-life [13]: 7.9 h | Activity [14]: Non-Toxic | bioavailability [15]: 5.1% | Activity [16]: Non-Toxic | Activity (MDA-MB-468 [17]): 16.47% | Activity (MDA-MB-231 [18]): 3.97% | AUC(0-inf) [19]: 618 ng·h/mL | IC50 (L02): > 20 µM | AUC(0-inf) [20]: 490 ng·h/mL | Activity (MDA-MB-468 [21]): 3.86% | half-life [22]: 7.9 h | AUC(0-t) at 24 h [23]: 536 ng·h/mL | half-life [24]: 7.1 h | Activity (MDA-MB-231 [25]): 29.24% | Activity (MDA-MB-231 [26]): 5.86% | Activity [27]: Non-Toxic | Activity (MDA-MB-231 [28]): 4.68% | Cmax [29]: 232 ng/mL | Activity (MDA-MB-231 [30]): 3.35% | IC50 (MDA-MB-231 [31]): 2.05 µM | Activity (MDA-MB-468 [32]): 15.38% | AUC(0-t) at 24 h [33]: 55.1 ng·h/mL | IC50 at 48 h [34]: > 20 µM | IC50 (MDA-MB-468 [35]): 7.54 µM | Activity (MDA-MB-468 [36]): 22.31% | AUC(0-inf) [37]: 56.7 ng·h/mL | Activity (MDA-MB-231 [38]): 25.51% | Activity (MDA-MB-468 [39]): 4.6% | Activity (MDA-MB-468 [40]): 11.06% | Activity (MDA-MB-468 [41]): 17.13% | inhibition in vivo at 15 mg/kg (MDA-MB-231 [42]): 42.2%
